From ChEMBL document CHEMBL1148617, “Design, synthesis, and structure-activity relationships of 1-,3-,8-, and 9-substituted-9-deazaxanthines at the human A2B adenosine receptor” (J Med Chem, 2006)

Assays:
Adenosine receptor A2a [1] = biological target: T1, Adenosine receptor A2a (Homo sapiens, UniProt P29274); assay: Displacement of [3H]ZM-241385 from recombinant human adenosine A2A receptor expressed in HeLa cells at 0.1 uM
[2] = biological target: T2, Adenosine receptor A2b (Homo sapiens) (UniProt P29275); assay: Displacement of [3H]DPCPX from recombinant human adenosine A2B receptor expressed in HEK293 cells at 0.01 uM
T2 sequence (whole entry): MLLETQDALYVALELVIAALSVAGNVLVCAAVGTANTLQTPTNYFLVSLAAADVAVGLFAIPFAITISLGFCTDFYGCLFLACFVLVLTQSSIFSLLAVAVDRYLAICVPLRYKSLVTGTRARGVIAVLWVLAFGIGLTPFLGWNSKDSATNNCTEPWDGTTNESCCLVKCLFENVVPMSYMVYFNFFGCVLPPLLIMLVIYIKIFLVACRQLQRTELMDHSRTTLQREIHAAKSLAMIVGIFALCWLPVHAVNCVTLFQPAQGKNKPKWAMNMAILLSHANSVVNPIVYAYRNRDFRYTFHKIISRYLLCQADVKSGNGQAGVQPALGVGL

[3] = biological target: T2, Adenosine receptor A2b (Homo sapiens); assay: Displacement of [3H]DPCPX from recombinant human adenosine A2B receptor expressed in HEK293 cells at 0.1 uM; assay type: cell-based
Adenosine receptor A3 = biological target: T3, Adenosine receptor A3 (Homo sapiens, UniProt P0DMS8)
T3 sequence (P0DMS8 whole entry): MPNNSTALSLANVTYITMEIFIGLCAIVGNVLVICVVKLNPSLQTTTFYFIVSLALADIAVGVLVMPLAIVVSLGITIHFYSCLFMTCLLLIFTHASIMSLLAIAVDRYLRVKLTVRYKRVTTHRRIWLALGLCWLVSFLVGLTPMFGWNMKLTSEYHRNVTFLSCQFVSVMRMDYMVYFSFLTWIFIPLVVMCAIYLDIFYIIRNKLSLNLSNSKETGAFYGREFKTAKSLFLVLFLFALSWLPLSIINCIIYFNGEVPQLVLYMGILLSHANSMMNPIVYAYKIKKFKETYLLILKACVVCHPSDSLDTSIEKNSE
Description: Binding affinity to recombinant human adenosine A3 receptor

Adenosine receptor A2a [4] = biological target: T1, Adenosine receptor A2a
Description: Binding affinity to recombinant human adenosine A2A receptor

Adenosine receptor A1 [5] = biological target: T4, Adenosine receptor A1 (Homo sapiens, UniProt P30542)
T4 sequence (P30542 whole entry): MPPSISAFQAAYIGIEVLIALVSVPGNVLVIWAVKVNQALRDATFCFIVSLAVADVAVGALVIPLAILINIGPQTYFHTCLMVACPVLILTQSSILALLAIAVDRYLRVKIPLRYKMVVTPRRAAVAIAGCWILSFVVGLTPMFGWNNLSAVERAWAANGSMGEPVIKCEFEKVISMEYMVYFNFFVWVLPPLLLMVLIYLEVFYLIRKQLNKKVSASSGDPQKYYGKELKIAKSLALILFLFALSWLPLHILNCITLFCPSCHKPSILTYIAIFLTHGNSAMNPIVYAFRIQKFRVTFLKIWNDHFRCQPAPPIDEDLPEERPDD
Description: Binding affinity to recombinant human adenosine A1 receptor

Adenosine receptor A2b = biological target: T5, Adenosine receptor A2b (Homo sapiens, UniProt P29275)
T5 sequence (P29275 whole entry): T2 sequence (whole entry)
Description: Binding affinity to recombinant human adenosine A2B receptor

Adenosine receptor A2a [6] = biological target: T6, Adenosine receptor A2a (Rattus norvegicus, UniProt P30543); assay: Antagonist potency against adenosine A2A receptor of Sprague-Dawley rat aortic smooth muscle; assay type: functional; settings: read-out: pA2 (converted)
T6 sequence (P30543 whole entry): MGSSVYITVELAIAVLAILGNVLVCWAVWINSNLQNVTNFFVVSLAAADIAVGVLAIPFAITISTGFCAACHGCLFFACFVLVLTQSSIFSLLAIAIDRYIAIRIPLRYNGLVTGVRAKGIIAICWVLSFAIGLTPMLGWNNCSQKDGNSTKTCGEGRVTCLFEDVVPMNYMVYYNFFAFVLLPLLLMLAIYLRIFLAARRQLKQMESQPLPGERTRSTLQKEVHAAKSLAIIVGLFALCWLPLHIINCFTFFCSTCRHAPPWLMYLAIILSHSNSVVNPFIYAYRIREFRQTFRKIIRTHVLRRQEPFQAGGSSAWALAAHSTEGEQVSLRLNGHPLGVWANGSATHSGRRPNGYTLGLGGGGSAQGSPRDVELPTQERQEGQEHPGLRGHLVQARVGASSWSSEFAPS

[7] = biological target: T7, Adenosine receptor A3 (Homo sapiens) (UniProt P0DMS8); assay: Displacement of [3H]NECA from recombinant human adenosine A3 receptor expressed in HeLa cells at 1uM; assay type: cell-based
T7 sequence (whole entry): T3 sequence (P0DMS8 whole entry)

Adenosine receptor A2a [8] = biological target: T6, Adenosine receptor A2a; assay: Binding affinity to rat adenosine A2A receptor
Adenosine receptor A1 [9] = biological target: T8, Adenosine receptor A1 (Rattus norvegicus, UniProt P25099); assay: Binding affinity to rat adenosine A1 receptor
T8 sequence (P25099 whole entry): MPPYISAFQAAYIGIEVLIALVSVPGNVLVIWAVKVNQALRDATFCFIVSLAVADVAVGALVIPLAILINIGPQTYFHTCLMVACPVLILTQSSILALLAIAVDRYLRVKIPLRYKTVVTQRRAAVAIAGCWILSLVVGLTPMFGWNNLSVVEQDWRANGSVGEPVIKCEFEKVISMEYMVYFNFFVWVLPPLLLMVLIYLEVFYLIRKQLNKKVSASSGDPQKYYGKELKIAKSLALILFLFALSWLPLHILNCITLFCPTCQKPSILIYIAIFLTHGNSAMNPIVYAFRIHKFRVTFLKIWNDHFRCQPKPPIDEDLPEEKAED

T1 sequence (P29274 whole entry): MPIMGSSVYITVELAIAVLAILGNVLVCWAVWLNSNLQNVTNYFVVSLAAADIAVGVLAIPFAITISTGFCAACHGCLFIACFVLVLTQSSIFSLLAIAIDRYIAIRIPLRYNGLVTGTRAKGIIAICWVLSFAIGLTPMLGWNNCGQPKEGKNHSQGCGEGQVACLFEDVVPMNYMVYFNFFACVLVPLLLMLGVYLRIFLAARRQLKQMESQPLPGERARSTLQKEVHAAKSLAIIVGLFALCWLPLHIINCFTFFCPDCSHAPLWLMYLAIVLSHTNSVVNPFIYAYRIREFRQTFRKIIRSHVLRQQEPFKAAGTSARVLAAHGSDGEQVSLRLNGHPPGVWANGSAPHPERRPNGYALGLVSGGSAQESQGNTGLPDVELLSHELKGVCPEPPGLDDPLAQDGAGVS

SMILES | inhibition (Adenosine receptor A2a [1]) [%] | inhibition [2] [%] | inhibition [3] [%] | Ki (Adenosine receptor A3) [nM] | Ki (Adenosine receptor A2a [4]) [nM] | Ki (Adenosine receptor A1 [5]) [nM] | Ki (Adenosine receptor A2b) [nM] | Kb (Adenosine receptor A2a [6]) [nM] | inhibition [7] [%] | Ki (Adenosine receptor A2a [8]) [nM] | Ki (Adenosine receptor A1 [9]) [nM]
CC(Oc1ccc(-c2cc3c([nH]2)c(=O)n(C)c(=O)n3C)cc1)C(=O)Nc1ccccc1 (centres undefined) | 60 | 73 | 99 | 912 | 47.9 | 7.76 | 4.79 | – | – | – | –
COc1cc(OCC(=O)Nc2ccc(Br)cc2)ccc1-c1cc2c([nH]1)c(=O)n(C)c(=O)n2C | 20 | 60 | 83 | 10700 | – | 32.4 | – | 933 | – | – | –
Cn1c(=O)c2[nH]c(-c3ccc(OCC(=O)Nc4ccc(F)cc4)cc3)cc2n(C)c1=O | 41 | 72 | 100 | – | – | 14.8 | – | 51.3 | 20 | – | –
CCCn1c(=O)c2[nH]c(-c3ccc(OCC(=O)Nc4ccc(-c5ccccc5)cc4)cc3)cc2n(C)c1=O | 15 | 39 | 93 | 12300 | – | 11 | – | 468 | – | – | –
CCCn1c(=O)c2[nH]c(-c3ccc(OCC(=O)NCc4ccccc4)cc3)nc2n(CCC)c1=O | – | – | – | 141 | 20 | 63.1 | – | – | – | – | –
Cn1c(=O)c2[nH]c(-c3ccc(OCC(=O)Nc4ccc(C#N)cc4)cc3)cc2n(C)c1=O | 47 | 60 | 91 | – | – | 4.27 | – | 43.7 | – | – | –
CCCn1c(=O)c2[nH]c(-c3ccc(OCC(=O)O)cc3)nc2n(CCC)c1=O | – | – | – | 3980 | – | – | – | – | – | 2240 | 63.1
CCCn1c(=O)c2nc(-c3ccc(OCC(=O)Nc4ccc(C)cc4)cc3)[nH]c2n(CCC)c1=O | – | – | – | – | – | – | 1.91 | – | – | 129 | –
Cn1c(=O)c2[nH]c(-c3ccc(OCC(=O)Nc4ccccc4)cc3)cc2n(C)c1=O | 10 | 44 | 91 | – | – | 240 | – | – | – | – | –
CCCn1c(=O)c2[nH]c(-c3ccc(OCC(=O)Nc4ccccc4)cc3)nc2n(CCC)c1=O | – | – | – | – | 2.24 | 40.7 | 1.51 | – | – | – | –
CCCn1c(=O)c2[nH]c(-c3ccc(OCC(=O)Nc4ccc(Br)cc4)cc3)nc2n(CCC)c1=O | – | – | – | 2340 | 1660 | – | 2.4 | – | – | – | –
Cn1c(=O)c2[nH]c(-c3ccc(OCC(=O)Nc4ccc(Br)cc4)cc3)cc2n(C)c1=O | 12 | 84 | 90 | – | – | 18.2 | – | 126 | 8 | – | –
